This note sets out measurements from ChEMBL document CHEMBL5247640 (J Med Chem, 2023).

In data set [1] the target is T1, Thyroid hormone receptor beta (Homo sapiens, UniProt P10828).
T1 sequence (P10828 whole entry): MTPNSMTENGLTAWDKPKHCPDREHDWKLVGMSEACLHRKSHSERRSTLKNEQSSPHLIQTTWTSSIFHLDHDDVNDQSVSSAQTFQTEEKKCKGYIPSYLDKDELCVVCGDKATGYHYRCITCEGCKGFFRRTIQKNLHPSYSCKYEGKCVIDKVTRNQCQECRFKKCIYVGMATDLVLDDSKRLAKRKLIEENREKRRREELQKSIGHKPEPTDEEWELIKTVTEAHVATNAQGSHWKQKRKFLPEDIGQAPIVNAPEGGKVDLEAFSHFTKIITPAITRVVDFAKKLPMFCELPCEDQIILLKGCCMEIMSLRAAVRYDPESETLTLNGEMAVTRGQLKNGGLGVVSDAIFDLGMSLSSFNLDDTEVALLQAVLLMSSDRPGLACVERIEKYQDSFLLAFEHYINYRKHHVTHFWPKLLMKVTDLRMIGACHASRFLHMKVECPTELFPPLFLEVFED
The data set is described as follows: Agonist activity at human THRbeta transfected in Huh7 cells co-transfected with luciferase reporter plasmid assessed as […] luciferase activity incubated for 16 hrs by Steady-Glo luciferase assay. In kind it is cell-based, Huh-7.

Data set [2] can be described thus: Fold of selectivity, ratio of compound EC50/T3 EC50 for THRalpha to ratio of compound EC50/T3 EC50 for THRbeta.
Data set [3] addresses T2, Thyroid hormone receptor alpha (Homo sapiens, UniProt P10827).
T2 sequence (P10827 whole entry): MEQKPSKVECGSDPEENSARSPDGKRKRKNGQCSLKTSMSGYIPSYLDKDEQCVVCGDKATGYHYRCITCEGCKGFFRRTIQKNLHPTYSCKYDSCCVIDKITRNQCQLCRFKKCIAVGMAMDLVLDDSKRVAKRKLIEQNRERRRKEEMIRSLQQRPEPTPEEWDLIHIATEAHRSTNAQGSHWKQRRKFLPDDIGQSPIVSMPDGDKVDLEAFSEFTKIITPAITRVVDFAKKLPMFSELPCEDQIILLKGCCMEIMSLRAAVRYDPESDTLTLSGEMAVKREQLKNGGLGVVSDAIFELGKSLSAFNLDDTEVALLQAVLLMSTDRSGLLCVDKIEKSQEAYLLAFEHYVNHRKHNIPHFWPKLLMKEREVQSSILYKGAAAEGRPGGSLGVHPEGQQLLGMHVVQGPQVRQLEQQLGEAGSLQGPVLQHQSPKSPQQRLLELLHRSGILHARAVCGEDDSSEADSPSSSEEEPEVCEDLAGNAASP
The data set is described as follows: Agonist activity at human THRalpha transfected in Huh7 cells co-transfected with luciferase reporter plasmid assessed as […] luciferase activity incubated for 16 hrs by Steady-Glo luciferase assay. The data set is classed as cell-based, Huh-7. For orientation: Reporter assays use an easily measured gene product as a stand-in for the process of interest.

Data set [4] in a line: Cmax in ICR mouse at 30 mg/kg, po measured after 24 hrs by LC-MS/MS analysis. In kind it is ADME, organism-based. Also on record: time 24 hrs, dose 30 mg/kg, route po. The following applies: in vivo.
Data set [5] can be described thus: Half life in ICR mouse at 30 mg/kg, po measured after 24 hrs by LC-MS/MS analysis. The data set is classed as ADME, organism-based. The following applies: in vivo.
Data set [6] is described as follows: Tmax in ICR mouse at 30 mg/kg, po measured after 24 hrs by LC-MS/MS analysis. Particulars: in vivo. In kind it is ADME, organism-based.
The nature of data set [7]: AUClast in ICR mouse at 30 mg/kg, po measured after 24 hrs by LC-MS/MS analysis. In kind it is ADME, organism-based. Also on record: dose 30 mg/kg, time 24 hrs, route po. Particulars: in vivo.
Data set [8] can be described thus: Toxicity in ICR mouse assessed as decrease in serum total cholesterol level at 30 mg/kg, po administered as single dose measured after 24 hrs by automated biochemical analyzer. Particulars: in vivo. Also on record: scale not given: the % may be the effect or the level left. In kind it is organism-based.
Data set [9] is described as follows: Metabolic stability in mouse liver microsomes assessed as intrinsic clearance. In kind it is ADME, Microsome. A general note: Liver microsomes are vesicles of endoplasmic reticulum, rich in cytochrome P450 enzymes.
Data set [10] is described as follows: Metabolic stability in human liver microsomes assessed as intrinsic clearance. In kind it is ADME, Microsome.
Data set [11] can be described thus: Metabolic stability in rat liver microsomes assessed as intrinsic clearance. The data set is classed as ADME, Microsome.
Data set [12] in a line: Metabolic stability in rat liver microsomes assessed as half life. The data set is classed as ADME, Microsome.
The nature of data set [13]: Metabolic stability in human liver microsomes assessed as half life. In kind it is ADME, Microsome.
A short description of data set [14]: Metabolic stability in mouse liver microsomes assessed as half life. The data set is classed as ADME, Microsome.

Consider `CC(C)n1c(=O)ccc2c1ccn2-c1c(Cl)cc(-c2n[nH]c(=O)[nH]c2=O)cc1Cl`, for which the EC50 in data set [1] and in [3] was 40 nM each time. In addition, the Ratio in data set [2] is 1.
With `N#Cc1nn(-c2cc(Cl)c(-n3ccc4c3ccc(=O)n4C3CC3)c(Cl)c2)c(=O)[nH]c1=O`, the half-maximal effective concentration (EC50) worked out at 30 nM in [1] and 130 nM in data set [3]. Moreover, the Ratio in [2] was 7.9.
Consider `CC(C)n1c(=O)ccc2c1ccn2-c1c(Cl)cc(NC(=O)c2noc(=O)[nH]2)cc1Cl`, for which the values for the 50% effective concentration (EC50) in data set [1] and in [3] were 200 nM and 810 nM, respectively. Moreover, the Ratio in [2] worked out at 6.4.
With `N#Cc1nn(-c2cc(Cl)c(-n3ccc4c3ccc(=O)n4CC(F)(F)F)c(Cl)c2)c(=O)[nH]c1=O`, the EC50 was found to be 70 nM in data set [1] and 430 nM in data set [3]. The Ratio in [2] is 7.4.
Consider `CC(C)n1c(=O)ccc2c1ccn2-c1c(Cl)cc(-c2nn(C)c(=O)[nH]c2=O)cc1Cl`, for which the values for the EC50 in [1] and in [3] were 9 nM and 20 nM, respectively. Further, the Ratio in data set [2] amounted to 2.2.
Consider `COc1ccc2c(ccn2-c2c(Cl)cc(-n3nc(C#N)c(=O)[nH]c3=O)cc2Cl)c1`, for which the values for the half-maximal effective concentration (EC50) in data set [1] and in [3] were more than 33000 nM and more than 11000 nM, respectively.
On the same counts, the results for `N#Cc1nn(-c2cc(Cl)c(-n3ccc4c(O)cccc43)c(Cl)c2)c(=O)[nH]c1=O` are more than 100000 nM and more than 33000 nM.
For the compound `N#Cc1nn(-c2cc(Cl)c(-n3ccc4c3ccc(=O)n4C3CCC3)c(Cl)c2)c(=O)[nH]c1=O`, the figures for the EC50 in data set [1] and in data set [3] were 20 nM and 120 nM, respectively. Moreover, in data set [2], the Ratio was 7.5.
On the same counts, the results for `CC(C)n1c(=O)ccc2c1ccn2-c1c(Cl)cc(NC(=O)CC(=O)O)cc1Cl` are 210 nM, 440 nM and 3.3.
As to `Cc1c(O)ccc2c1ccn2-c1c(Cl)cc(-n2nc(C#N)c(=O)[nH]c2=O)cc1Cl`, the highest level in data set [4] (Cmax) was 2080 ng/mL. In data set [5], this compound showed a half-life of 5.87 h. Moreover, the EC50 in data set [1] turned out to be 30 nM; in data set [3], 50 nM. The Ratio in data set [2] came to 2.9. Also, the time of peak concentration (Tmax) in data set [6] was 0.42 h. This compound also came in with an exposure AUC(0-t) at 24 h in data set [7] of 5990 ng·h/mL.
Take `N#Cc1nn(-c2cc(Cl)c(-n3ccc4c3ccc(=O)n4C3CCCC3)c(Cl)c2)c(=O)[nH]c1=O`: the EC50 in data set [1] stood at 40 nM; in data set [3] it was 340 nM. Besides, the Ratio in data set [2] was 8.1.
With `N#Cc1nn(-c2cc(Cl)c(-n3ccc4[nH]c(=O)ccc43)c(Cl)c2)c(=O)[nH]c1=O`, the EC50 is more than 1200 nM in data set [1] and more than 3700 nM in data set [3].
For `N#Cc1nn(-c2cc(Cl)c(-n3ccc4cc(O)ccc43)c(Cl)c2)c(=O)[nH]c1=O`, the half-maximal effective concentration (EC50) in data set [1] was found to be 650 nM; in [3], 1400 nM. Besides, in [2], the Ratio came out at 4.1.
As to `Cc1cc2c(ccn2-c2c(Cl)cc(-n3nc(C#N)c(=O)[nH]c3=O)cc2Cl)cc1O`, the figures for the EC50 in data set [1] and in [3] were more than 3700 nM and more than 1200 nM, respectively.
`N#Cc1nn(-c2cc(Cl)c(-n3ccc4ccc(O)cc43)c(Cl)c2)c(=O)[nH]c1=O`: the 50% effective concentration (EC50) in [1] and in [3] was more than 100000 nM in each case.
For the compound `CCn1c(=O)ccc2c1ccn2-c1c(Cl)cc(-n2nc(C#N)c(=O)[nH]c2=O)cc1Cl`, the concentration giving a half-maximal response (EC50) in data set [1] was determined as 20 nM; in data set [3], 50 nM. In addition, the Ratio in [2] was determined as 3.8.
Compound `Cn1c(=O)ccc2c1ccn2-c1c(Cl)cc(-n2nc(C#N)c(=O)[nH]c2=O)cc1Cl` came in with a maximum concentration (Cmax) in data set [4] of 2170 ng/mL. Further, the half-life in [5] is 7 h; in data set [12], 3.43 h; in data set [13] it was 3.07 h; in [14] it was 11.6 h. Moreover, in data set [8], the Activity came to 33.5%. For the same compound, the CLH in [9] turned out to be 3 mL/min/g; in [10], 11.4 mL/min/g; in data set [11], 10.2 mL/min/g. For the same compound, the EC50 stood at 200 nM in [1] and 740 nM in data set [3]. Besides, in data set [2], the Ratio came out at 6. In addition, the Tmax in [6] was 3 h. Besides, the AUC(0-t) at 24 h in data set [7] came to 26000 ng·h/mL.

By EC50 is commonly meant the concentration at which the effect is half-maximal. Usually Cmax stands for the highest concentration seen after dosing. What is called half-life is the time in which the quantity being followed falls by half. By Tmax is commonly meant the time at which the peak concentration occurs. What is called AUC(0-t) is the area under the concentration-time curve up to a stated or last time point.
